# How the values were obtained:
# [1] = biological target: wild-type human cardiac sodium channel, hNav1.5 (Homo sapiens, UniProt Q14524); experiment: Late INa screening assay (late sodium current, PatchXpress whole cell patch clamp); assay type: cell-based; conditions: for effect on late sodium current: result in words; for inhibition at 10 µM: compound at 10 μM, read-out: Late INa % blk
# hERG potassium channel = hERG potassium channel (Homo sapiens, UniProt Q12809); experiment: hERG screening assay (PatchXpress patch clamp, CHO cell line)
# Chain of hERG potassium channel (Q12809 whole entry): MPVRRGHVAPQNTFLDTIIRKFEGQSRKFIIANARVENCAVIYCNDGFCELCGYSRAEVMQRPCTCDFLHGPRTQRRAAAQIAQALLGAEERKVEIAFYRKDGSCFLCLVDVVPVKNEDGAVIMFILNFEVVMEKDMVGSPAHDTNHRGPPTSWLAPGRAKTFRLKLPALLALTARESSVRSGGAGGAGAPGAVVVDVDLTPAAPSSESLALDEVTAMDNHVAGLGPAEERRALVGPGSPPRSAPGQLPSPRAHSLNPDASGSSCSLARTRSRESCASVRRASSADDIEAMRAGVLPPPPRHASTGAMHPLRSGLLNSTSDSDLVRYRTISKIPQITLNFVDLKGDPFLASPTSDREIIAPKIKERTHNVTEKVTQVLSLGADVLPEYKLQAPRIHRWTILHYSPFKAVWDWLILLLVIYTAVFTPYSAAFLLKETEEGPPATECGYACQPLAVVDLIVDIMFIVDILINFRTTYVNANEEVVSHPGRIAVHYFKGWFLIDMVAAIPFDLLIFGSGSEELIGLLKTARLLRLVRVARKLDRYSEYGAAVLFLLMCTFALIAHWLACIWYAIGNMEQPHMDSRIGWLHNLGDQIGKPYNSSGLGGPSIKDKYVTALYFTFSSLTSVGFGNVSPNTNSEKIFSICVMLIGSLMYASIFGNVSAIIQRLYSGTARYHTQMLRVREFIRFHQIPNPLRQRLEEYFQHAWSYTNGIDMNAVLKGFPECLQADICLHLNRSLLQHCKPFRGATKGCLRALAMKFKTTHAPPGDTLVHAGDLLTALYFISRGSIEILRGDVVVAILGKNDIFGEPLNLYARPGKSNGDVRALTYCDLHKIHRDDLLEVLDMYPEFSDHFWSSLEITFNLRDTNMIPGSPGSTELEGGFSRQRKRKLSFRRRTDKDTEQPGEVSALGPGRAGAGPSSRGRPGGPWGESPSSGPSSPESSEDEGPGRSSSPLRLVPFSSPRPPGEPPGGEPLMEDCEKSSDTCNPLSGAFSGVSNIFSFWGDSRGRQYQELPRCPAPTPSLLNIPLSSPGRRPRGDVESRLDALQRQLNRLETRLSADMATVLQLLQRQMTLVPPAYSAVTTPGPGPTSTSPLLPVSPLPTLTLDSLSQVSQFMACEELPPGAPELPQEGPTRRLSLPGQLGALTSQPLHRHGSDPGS
# Chain of wild-type human cardiac sodium channel, hNav1.5 (Q14524 whole entry): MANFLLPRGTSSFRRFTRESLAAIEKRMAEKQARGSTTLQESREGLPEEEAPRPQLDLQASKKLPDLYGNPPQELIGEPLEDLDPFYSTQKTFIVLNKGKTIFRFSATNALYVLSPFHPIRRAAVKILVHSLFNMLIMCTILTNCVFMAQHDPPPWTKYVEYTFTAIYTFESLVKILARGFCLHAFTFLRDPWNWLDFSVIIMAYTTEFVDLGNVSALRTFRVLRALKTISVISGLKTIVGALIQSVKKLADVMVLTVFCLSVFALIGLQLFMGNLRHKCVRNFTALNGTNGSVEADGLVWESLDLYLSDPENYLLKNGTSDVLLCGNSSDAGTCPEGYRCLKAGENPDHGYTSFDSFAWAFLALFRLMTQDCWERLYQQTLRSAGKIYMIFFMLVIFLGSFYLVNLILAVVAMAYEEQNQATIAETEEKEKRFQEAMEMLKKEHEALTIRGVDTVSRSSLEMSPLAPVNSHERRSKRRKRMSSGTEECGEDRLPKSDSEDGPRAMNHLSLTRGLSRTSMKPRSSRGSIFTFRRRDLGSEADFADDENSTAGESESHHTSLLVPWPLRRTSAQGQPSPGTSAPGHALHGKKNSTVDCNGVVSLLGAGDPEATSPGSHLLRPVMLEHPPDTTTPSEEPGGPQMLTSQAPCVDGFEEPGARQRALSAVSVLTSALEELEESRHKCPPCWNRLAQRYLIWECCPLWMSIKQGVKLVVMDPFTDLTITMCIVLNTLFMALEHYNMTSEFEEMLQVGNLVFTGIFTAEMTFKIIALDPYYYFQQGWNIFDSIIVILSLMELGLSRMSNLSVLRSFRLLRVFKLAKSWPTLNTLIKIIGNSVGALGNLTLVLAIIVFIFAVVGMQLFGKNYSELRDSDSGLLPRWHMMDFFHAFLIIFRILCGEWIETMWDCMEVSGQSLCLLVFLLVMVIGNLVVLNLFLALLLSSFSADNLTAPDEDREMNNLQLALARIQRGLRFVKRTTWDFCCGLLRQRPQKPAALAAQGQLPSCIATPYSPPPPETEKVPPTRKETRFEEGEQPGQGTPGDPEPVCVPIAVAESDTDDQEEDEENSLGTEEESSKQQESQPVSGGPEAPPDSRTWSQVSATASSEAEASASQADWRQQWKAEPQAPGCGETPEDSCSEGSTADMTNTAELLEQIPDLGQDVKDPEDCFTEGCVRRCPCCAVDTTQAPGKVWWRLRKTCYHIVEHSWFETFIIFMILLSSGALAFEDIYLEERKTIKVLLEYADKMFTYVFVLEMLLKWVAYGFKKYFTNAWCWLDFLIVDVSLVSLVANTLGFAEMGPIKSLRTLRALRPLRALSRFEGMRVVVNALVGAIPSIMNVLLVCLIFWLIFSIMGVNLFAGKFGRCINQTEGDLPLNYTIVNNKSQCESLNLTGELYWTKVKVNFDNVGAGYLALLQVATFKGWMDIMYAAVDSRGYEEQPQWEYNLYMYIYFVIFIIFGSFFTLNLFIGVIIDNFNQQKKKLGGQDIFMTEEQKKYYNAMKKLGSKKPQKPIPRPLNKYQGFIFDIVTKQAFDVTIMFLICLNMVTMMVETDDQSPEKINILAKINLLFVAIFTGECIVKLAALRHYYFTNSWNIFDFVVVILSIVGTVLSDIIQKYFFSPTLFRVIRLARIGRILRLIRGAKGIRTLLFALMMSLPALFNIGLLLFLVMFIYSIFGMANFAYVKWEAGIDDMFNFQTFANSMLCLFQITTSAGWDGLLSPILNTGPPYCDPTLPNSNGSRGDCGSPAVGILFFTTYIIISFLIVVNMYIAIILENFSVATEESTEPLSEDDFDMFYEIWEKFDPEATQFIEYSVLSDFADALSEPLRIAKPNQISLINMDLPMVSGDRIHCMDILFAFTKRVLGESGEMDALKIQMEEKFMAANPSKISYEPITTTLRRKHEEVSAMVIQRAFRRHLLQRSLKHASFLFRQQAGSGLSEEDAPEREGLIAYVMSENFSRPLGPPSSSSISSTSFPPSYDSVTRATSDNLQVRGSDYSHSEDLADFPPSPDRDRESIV
Structure (SMILES),effect on late sodium current [1],hERG Patch Clamp hERG % blk (hERG potassium channel; 1 μM) [%],hERG Patch Clamp hERG % blk (hERG potassium channel; 10 μM) [%],inhibition at 10 µM [1] [%]
"CC1=C(C(=O)N2CCC(c3ccccc3)CC2)C(c2ccsc2)C2=C(CCCC2=O)N1 (stereo not drawn) [PT-163, 2-methyl-3-(4-phenylpiperidine-1-carbonyl)-4-(thiophen-3-yl)-4,6,7,8-tetrahydroquinolin-5(1H)-one]",potentiated late sodium current,15.0,53.5,–
"CC1=C(C(=O)OC(C)C)C(c2cccc3ccccc23)n2nnnc2N1 (stereo not drawn) [PT-021, isopropyl 5-methyl-7-(naphthalen-1-yl)-4,7-dihydrotetrazolo[1,5-a]pyrimidine-6-carboxylate]",–,13.0,43.5,48.2
"CCOC(=O)C1=C(C(C)C)NC(C(C)C)=C(C(=O)OCC)C1c1ccc(Br)s1 [PT-183, diethyl 4-(5-bromothiophen-2-yl)-2,6-diisopropyl-1,4-dihydropyridine-3,5-dicarboxylate]",–,10.0,10.0,54
"CCOC(=O)C1=C(C)Nc2[nH]nc(C)c2C1c1cccc2ccccc12 (stereo not drawn) [PT-074, ethyl 3,6-dimethyl-4-(naphthalen-1-yl)-4,7-dihydro-1H-pyrazolo[3,4-b]pyridine-5-carboxylate]",–,14.0,43.0,27.7
"CC1=C(C(=O)OCc2ccccc2)C(c2c3ccccc3cc3ccccc23)n2nnnc2N1 (stereo not drawn) [PT-039, benzyl 7-(anthracen-9-yl)-5-methyl-4,7-dihydrotetrazolo[1,5-a]pyrimidine-6-carboxylate]",–,10.0,27.5,82.1
"CCOC(=O)C1=C(CC)Nc2nnnn2C1c1cccc2ccccc12 (stereo not drawn) [PT-010, ethyl 5-ethyl-7-(naphthalen-1-yl)-4,7-dihydrotetrazolo[1,5-a]pyrimidine-6-carboxylate]",–,12.5,30.0,36.1
"CC1=C(C(=O)OCc2ccc(Cn3cccn3)cc2)C(c2cccs2)n2nnnc2N1 (stereo not drawn) [PT-280, 4-((1H-pyrazol-1-yl)methyl)benzyl 5-methyl-7-(thiophen-2-yl)-4,7-dihydrotetrazolo[1,5-a]pyrimidine-6-carboxylate]",–,11.5,48.0,45.9
"CCOC(=O)C1=C(C)Nc2nnnn2C1c1cc2ccccc2o1 (stereo not drawn) [PT-019, ethyl 7-(benzofuran-2-yl)-5-methyl-4,7-dihydrotetrazolo[1,5-a]pyrimidine-6-carboxylate]",–,10.0,26.0,35.7
"CCOC(=O)C1=C(C)NC(C)=C(C(=O)OCC)C1c1cccs1 [PT-111, diethyl 2,6-dimethyl-4-(thiophen-2-yl)-1,4-dihydropyridine-3,5-dicarboxylate]",–,11.5,48.5,69.2
"CCOC(=O)C1=C(C)Nc2nnnn2C1c1ccccc1-n1cccn1.Cl (stereo not drawn) [PT-477, ethyl 7-(2-(1H-pyrazol-1-yl)phenyl)-5-methyl-4,7-dihydrotetrazolo[1,5-a]pyrimidine-6-carboxylate hydrochloride]",–,12.0,44.0,6.2
"CCOC(=O)C1=C(C)NC2=C(C(=O)CCC2)C1c1cccc2ncccc12 (stereo not drawn) [PT-140, ethyl 2-methyl-5-oxo-1,4,5,6,7,8-hexahydro-4,5′-biquinoline-3-carboxylate]",–,13.5,34.5,6.3
"CC1=C(C(=O)OCc2ccccc2)C(c2ccccc2-c2ccc(C(=O)O)cc2)n2nnnc2N1 (stereo not drawn) [PT-254, 2′-(6-(benzyloxycarbonyl)-5-methyl-4,7-dihydrotetrazolo[1,5-a]pyrimidin-7-yl)biphenyl-4-carboxylic acid]",–,15.0,20.0,10.7
"CC1=C(C(=O)OCc2ccccc2)C(c2ccccc2-c2ccc(NS(C)(=O)=O)cc2)c2cn[nH]c2N1 (stereo not drawn) [PT-366, benzyl 6-methyl-4-(4′-(methylsulfonamido)biphenyl-2-yl)-4,7-dihydro-1H-pyrazolo[3,4-b]pyridine-5-carboxylate]",–,28.0,92.0,87.8
"CCS(=O)(=O)N1CCN(c2cccc(OC)c2C2C(C(=O)OCc3ccccc3)=C(C)Nc3nnnn32)CC1 (stereo not drawn) [PT-378, benzyl 7-(2-(4-(ethylsulfonyl)piperazin-1-yl)-6-methoxyphenyl)-5-methyl-4,7-dihydrotetrazolo[1,5-a]pyrimidine-6-carboxylate]",–,10.0,41.5,42
"CCOC(=O)C1=C(C)Nc2c(c(C)nn2C)C1c1cccc2ccccc12 (stereo not drawn) [PT-440, ethyl 1,3,6-trimethyl-4-(naphthalen-1-yl)-4,7-dihydro-1H-pyrazolo[3,4-b]pyridine-5-carboxylate]",–,12.0,48.0,42.8
"CC1=C(C(=O)NCc2ccccc2)C(c2ccsc2)C2=C(CCCC2=O)N1 (stereo not drawn) [PT-178, N-benzyl-2-methyl-5-oxo-4-(thiophen-3-yl)-1,4,5,6,7,8-hexahydroquinoline-3-carboxamide]",–,11.5,30.0,0.3
"CCOC(=O)C1=C(C)Nc2nnnn2C1c1ccccc1-c1cccc(-c2nnn[nH]2)c1 (stereo not drawn) [PT-493, ethyl 7-(3′-(1H-tetrazol-5-yl)biphenyl-2-yl)-5-methyl-4,7-dihydrotetrazolo[1,5-a]pyrimidine-6-carboxylate]",–,10.0,10.0,0.5
"CCOC(=O)C1=C(C)NC2=C(C(=O)CCC2)C1c1ccnc2ccccc12 (stereo not drawn) [PT-190, ethyl 2-methyl-5-oxo-1,4,5,6,7,8-hexahydro-4,4′-biquinoline-3-carboxylate]",–,10.5,32.0,4.2
"CCCC1=C(C(=O)OCC)C(c2ccc(C(=O)O)cc2)C2=C(CC(C)(C)CC2=O)N1 (stereo not drawn) [PT-133, 4-(3-(ethoxycarbonyl)-7,7-dimethyl-5-oxo-2-propyl-1,4,5,6,7,8-hexahydroquinolin-4-yl)benzoic acid]",–,10.0,12.0,-27.5
"CC1=C(C(=O)OCc2ccccc2)C(c2ccccc2N2CCCCC2)n2nnnc2N1 (stereo not drawn) [PT-342, benzyl 5-methyl-7-(2-(piperidin-1-yl)phenyl)-4,7-dihydrotetrazolo[1,5-a]pyrimidine-6-carboxylate]",–,10.0,47.5,80.1
"CC1=C(C(=O)OCc2ccccc2)C(c2nccs2)n2nccc2N1 (stereo not drawn) [PT-363, benzyl 5-methyl-7-(thiazol-2-yl)-4,7-dihydropyrazolo[1,5-a]pyrimidine-6-carboxylate]",–,10.0,19.5,40.9
"CC1=C(c2nnc(CCc3ccccc3)o2)C(c2cccc3ccccc23)n2nnnc2N1 (stereo not drawn) [PT-252, 2-(5-methyl-7-(naphthalen-1-yl)-4,7-dihydrotetrazolo[1,5-a]pyrimidin-6-yl)-5-phenethyl-1,3,4-oxadiazole]",–,10.5,78.0,70
"CC1=C(C(=O)OCc2ccccc2)C(c2sc3ccccc3c2C)n2nnnc2N1 (stereo not drawn) [PT-044, benzyl 5-methyl-7-(3-methylbenzo[b]thiophen-2-yl)-4,7-dihydrotetrazolo[1,5-a]pyrimidine-6-carboxylate]",–,16.5,40.0,70.7
"CC1=C(C(=O)NCc2ccccc2)C(c2ccc3ccccc3c2)n2nnnc2N1 (stereo not drawn) [PT-068, N-benzyl-5-methyl-7-(naphthalen-2-yl)-4,7-dihydrotetrazolo[1,5-a]pyrimidine-6-carboxamide]",–,14.0,22.5,14.3
"CC1=C(C(=O)OCc2ccccc2)C(c2sccc2-c2ccc(F)cc2)n2nnnc2N1 (stereo not drawn) [PT-397, benzyl 7-(3-(4-fluorophenyl)thiophen-2-yl)-5-methyl-4,7-dihydrotetrazolo[1,5-a]pyrimidine-6-carboxylate]",–,10.0,25.0,69.1
"CCOC(=O)C1=C(C)Nc2nnnn2C1c1ccccc1-n1ccnc1.Cl (stereo not drawn) [PT-476, ethyl 7-(2-(1H-imidazol-1-yl)phenyl)-5-methyl-4,7-dihydrotetrazolo[1,5-a]pyrimidine-6-carboxylate hydrochloride]",–,17.5,23.0,2.6
"N#CC1=C(N)NC2=C(C(=O)CCC2)C1c1ccc(Br)cc1 (stereo not drawn) [PT-095, 2-amino-4-(4-bromophenyl)-5-oxo-1,4,5,6,7,8-hexahydroquinoline-3-carbonitrile]",–,10.0,24.5,4.9
"CC1=C(C(=O)OCc2ccccc2)C(c2c(Br)sc3ccccc23)n2nnnc2N1 (stereo not drawn) [PT-386, benzyl 7-(2-bromobenzo[b]thiophen-3-yl)-5-methyl-4,7-dihydrotetrazolo[1,5-a]pyrimidine-6-carboxylate]",–,10.0,16.5,79.2
"CC1=C(C(=O)N2CCN(c3ccccc3)CC2)C(c2ccc3ccccc3c2)C2=C(CCCC2=O)N1 (stereo not drawn) [PT-165, 2-methyl-4-(naphthalen-2-yl)-3-(4-phenylpiperazine-1-carbonyl)-4,6,7,8-tetrahydroquinolin-5(1H)-one]",potentiated late sodium current,30.5,64.5,–
